As usually defined, the IC50 is the concentration at which inhibition is half-maximal.

The assay deals with Radical scavenging activity. In words: Antioxidant activity assessed as DPPH free radical scavenging activity. It is filed as functional. In general terms: The DPPH test is a chemical assay of radical scavenging.

The structures appear in SMILES notation. ≈ marks a conversion by molar mass, not a printed value.

As to `C[C@@H]1O[C@@H](OC[C@H]2O[C@@H](Oc3c(-c4ccc(O)cc4)oc4cc(O)c(O)c(O)c4c3=O)[C@H](O)[C@@H](O)[C@@H]2O)[C@H](O)[C@H](O)[C@H]1O`, the IC50 amounted to 43.2 µg/mL (≈ 70.8 µM). `C[C@H]1O[C@H](O[C@H]2[C@H](Oc3c(-c4ccc(O)cc4)oc4cc(O)cc(O)c4c3=O)O[C@H](CO)[C@@H](O)[C@@H]2O)[C@@H](O)[C@@H](O)[C@@H]1O`: the IC50 turned out to be 79.6 µg/mL (≈ 134 µM).

As to `O=C1O[C@H]([C@@H](O)CO)C(O)=C1O` [ASCORBIC ACID], the IC50 was 22 µg/mL (≈ 125 µM). Consider `COc1ccc(O)c(C(C)(C)C)c1.COc1ccc(O)cc1C(C)(C)C` [BUTYLATED HYDROXYANISOLE], for which the IC50 came out at 21 µg/mL. For `O=C(O)/C=C/c1ccc(O)c(O)c1` [CAFFEIC ACID], the IC50 amounted to 12 µg/mL (≈ 66.6 µM). Take `O=C(O)c1cc(O)c(O)c(O)c1` [GALLIC ACID]: the IC50 was determined as 5 µg/mL (≈ 29.4 µM). Take `CC(Cc1ccc(O)c(O)c1)C(C)Cc1ccc(O)c(O)c1` (configuration not stated) [NORDIHYDROGUAIARETIC ACID]: the IC50 worked out at 12 µg/mL (≈ 39.7 µM).

Source of the values: ChEMBL document CHEMBL1150897, “Antioxidant flavonoid glycosides from Daphniphyllum calycinum” (J Nat Prod, 1998).
